How the values were obtained:
human ETA receptors = target: T1, human ETA receptors (Homo sapiens, UniProt P25101); experiment: Endothelin binding inhibition, Binding Test #1: competition with 125I-ET-1 for ETA receptors on TE 671 cell membranes
T1 construct: endogenous in cells; host or cells: TE 671 cells (ATCC HTB 139), membrane preparation
T1 sequence (P25101 21-427): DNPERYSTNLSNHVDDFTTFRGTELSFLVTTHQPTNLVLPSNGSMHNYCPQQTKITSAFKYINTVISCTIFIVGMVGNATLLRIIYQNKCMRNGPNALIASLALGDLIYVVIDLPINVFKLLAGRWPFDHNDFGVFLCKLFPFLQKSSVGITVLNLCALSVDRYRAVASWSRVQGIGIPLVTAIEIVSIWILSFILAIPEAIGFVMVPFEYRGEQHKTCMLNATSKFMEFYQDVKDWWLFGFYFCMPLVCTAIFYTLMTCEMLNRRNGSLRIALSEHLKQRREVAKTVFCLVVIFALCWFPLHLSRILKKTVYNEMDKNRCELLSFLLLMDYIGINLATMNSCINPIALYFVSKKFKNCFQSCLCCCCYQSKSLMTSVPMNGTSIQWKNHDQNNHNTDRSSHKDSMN

human ETB receptor = target: T2, human ETB receptor (Homo sapiens, UniProt P24530); experiment: Endothelin binding inhibition, Binding Test #2: competition with 125I-ET-1 for ETB receptors on transfected COS7 cell membranes
T2 construct: expressed in transfected cells; host or cells: COS7 cells
T2 sequence (P24530 27-442): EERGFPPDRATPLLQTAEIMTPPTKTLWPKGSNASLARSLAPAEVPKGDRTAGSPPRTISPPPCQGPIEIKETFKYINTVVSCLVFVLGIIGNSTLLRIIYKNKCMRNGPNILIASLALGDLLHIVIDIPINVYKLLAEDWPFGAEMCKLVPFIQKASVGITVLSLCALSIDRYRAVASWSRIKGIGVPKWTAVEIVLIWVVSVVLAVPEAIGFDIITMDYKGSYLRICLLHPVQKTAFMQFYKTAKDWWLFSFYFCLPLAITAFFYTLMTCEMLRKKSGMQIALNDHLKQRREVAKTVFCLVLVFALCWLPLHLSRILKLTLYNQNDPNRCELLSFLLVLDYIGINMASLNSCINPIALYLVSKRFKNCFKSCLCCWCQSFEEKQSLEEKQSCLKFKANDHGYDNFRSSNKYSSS
Summary of the method: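 Membranes from COS7 cells transfected with human ETB receptor, prepared in HEPES pH 7.4 with aprotinin, MnCl2/DNase treatment at 37° C for 30 min. Test compounds compete with 125I-labeled ET-1 for receptor binding; membrane used at 1 μg/50 μL binding buffer.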

[1] = incubation at 24° C. (values marked †)
[2] = incubation at 4° C. (values without †)

Row | Compound | IC50 (human ETA receptors; [1]) [nM] | IC50 (human ETB receptor; [1]) [nM] | IC50 (human ETA receptors; [2]) [nM] | inhibition at 100 µM (human ETB receptor; read-out: ETB % inhibition @ 100 μM, @ 100 μM, incubation at 24° C.) [%] | IC50 (human ETB receptor; [2]) [nM]
1 | N-(3,4-dimethyl-5-isoxazolyl)-2-(4-tolylacetylphenyl)thiophene-3-sulfonamide | 2.7 | 29200 |  |  | 
2 | Cc1noc(NS(=O)(=O)c2ccsc2C(=O)Nc2cccc(C(=O)O)c2)c1Br [N-(4-bromo-3-methyl-5-isoxazolyl)-2-[(3-carboxyphenyl)aminocarbonyl]thiophene-3-sulfonamide] | 62 | > 100000 |  |  | 
3 | Cc1noc(NS(=O)(=O)c2ccsc2NC(=O)Nc2ccc3c(c2)OCO3)c1Br [N-(4-bromo-3-methyl-5-isoxazolyl)-2-[(3,4-methylenedioxy)phenylureido]thiophene-3-sulfonamide] | 570 | 1300 |  |  | 
4 | Cc1noc(NS(=O)(=O)c2ccsc2C(=O)Oc2ccccc2)c1C [N-(3,4-dimethyl-5-isoxazolyl)-2-(phenoxycarbonyl)thiophene-3-sulfonamide] | 2850 |  |  | 31 | 
5 | Cc1noc(NS(=O)(=O)c2ccsc2C(=O)Nc2ccccc2O)c1Br [N-(4-bromo-3-methyl-5-isoxazolyl)-2-[(2-hydroxyphenyl)aminocarbonyl]thiophene-3-sulfonamide] | 13 | 38000 |  |  | 
6 | N-(4-chloro-3-methyl-5-isoxazolyl)-2-[2-hydroxypropyl-4,5-(methylenedioxy)phenylaminocarbonyl]thiophene-3-sulfonamide | 7.3 | 8300 |  |  | 
7 | CCc1ccc(Cc2sc3ccccc3c2S(=O)(=O)Nc2onc(C)c2Br)cc1 [N-(4-bromo-3-methyl-5-isoxazolyl)-2-(4-ethylbenzyl)benzo[b]thiophene-3-sulfonamide] | 48 | 1100 |  |  | 
8 | Cc1noc(NS(=O)(=O)c2c(C)sc3ccccc23)c1C [N-(3,4-dimethyl-5-isoxazolyl)-2-methylbenzo[b]thiophene-3-sulfonamide] |  |  | 167 |  | 16600
9 | COc1cccc(NCc2sccc2S(=O)(=O)Nc2onc(C)c2C)c1 [N-(3,4-dimethyl-5-isoxazolyl))-2-[(3-methoxyanilino)methyl]thiophene-3-sulfonamide] | 933 | 7700 | 214 |  | 5340
10 | Cc1noc(NS(=O)(=O)c2sccc2C(=O)Nc2ccccc2)c1C [N-(3,4-dimethyl-5-isoxazolyl))-3-(phenylaminocarbonyl)thiophene-2-sulfonamide] |  |  | 163 |  | > 100000
11 | Cc1ccccc1OC(=O)c1sccc1S(=O)(=O)Nc1onc(C)c1Br [N-(4-bromo-3-methyl-5-isoxazolyl)-2-[(2-methylphenoxy)carbonyl]thiophene-3-sulfonamide] | 684 | 105000 |  |  | 
12 | Cc1noc(NS(=O)(=O)c2ccsc2NC(=O)Oc2ccc3c(c2)OCO3)c1Br [N-(4-bromo-3-methyl-5-isoxazolyl)-2-[3,4-(methylenedioxy)phenoxycarbonylamino]thiophene-3-sulfonamide] | 87 | 5900 |  |  | 
13 | Cc1ccc(NC(=O)c2sccc2S(=O)(=O)Nc2onc(C)c2C)cc1 [N-(3,4-dimethyl-5-isoxazolyl)-2-[(4-methylphenyl)aminocarbonyl]thiophene-3-sulfonamide] |  |  | 3.36 |  | 11300
14 | COc1cc(Cc2sc3ccccc3c2S(=O)(=O)Nc2onc(C)c2Br)cc(OC)c1OC [N-(4-bromo-3-methyl-5-isoxazolyl)-2-(3,4,5-trimethoxybenzyl)-benzo[b]thiophene-3-sulfonamide] | 13 | 1200 |  |  | 
15 | Cc1noc(NS(=O)(=O)c2ccsc2C(=O)Nc2ccc3c(c2)OCO3)c1Br [N-(4-bromo-3-methyl-5-isoxazolyl)-2-[(3,4-methylenedioxyphenyl)aminocarbonyl]thiophene-3-sulfonamide] | 17 | 9800 |  |  | 

The remaining lines, values ahead:

Row | IC50 (human ETA receptors; [1]) [nM] | IC50 (human ETB receptor; [1]) [nM] | IC50 (human ETA receptors; [2]) [nM] | inhibition at 100 µM (human ETB receptor; read-out: ETB % inhibition @ 100 μM, @ 100 μM, incubation at 24° C.) [%] | IC50 (human ETB receptor; [2]) [nM] | Compound
16 | 158 | 63100 |  |  |  | COc1ccc(NC(=O)c2sccc2S(=O)(=O)Nc2onc(C)c2Cl)c(OC)c1 [N-(4-chloro-3-methyl-5-isoxazolyl)-2-[(2,4-dimethoxyphenyl)aminocarbonyl]thiophene-3-sulfonamide]
17 |  | 43900 | 184 |  |  | CCc1ccc(-c2ccsc2S(=O)(=O)Nc2onc(C)c2Br)cc1 [N-(4-bromo-3-methyl-5-isoxazolyl)-3-(4-ethylphenyl)thiophene-2-sulfonamide]
18 | 1400 | 60000 |  |  |  | Cc1noc(NS(=O)(=O)c2ccsc2C(=O)Oc2cccc(N(C)C)c2)c1Cl [N-(4-chloro-3-methyl-5-isoxazolyl)-2-[(3-dimethylamino)phenoxycarbonyl]thiophene-3-sulfonamide]
19 | 0.238 | 3820 |  |  |  | Cc1cc(C)c(CC(=O)c2sccc2S(=O)(=O)Nc2onc(C)c2Cl)c(C)c1 [N-(4-chloro-3-methyl-5-isoxazolyl)-2-(2,4,6-trimethylphenylacetyl)thiophene-3-sulfonamide]
20 | 6330 | 8820 |  |  |  | Cc1noc(NS(=O)(=O)c2c(-c3ccccc3C#N)sc3ccccc23)c1Cl [N-(4-chloro-3-methyl-5-isoxazolyl)-2-[2-(cyano)phenyl]benzo[b]thiophene-3-sulfonamide]
21 | 198 | 9130 |  |  |  | Cc1ccc(CC(=O)c2sccc2S(=O)(=O)Nc2onc(C)c2Br)cc1 [N-(4-bromo-3-methyl-5-isoxazolyl)-2-[(4-methylphenyl)acetyl]thiophene-3-sulfonamide]
22 | 14000 | 6200 |  |  |  | Cc1noc(NS(=O)(=O)c2ccsc2N)c1Cl [N-(4-chloro-3-methyl-5-isoxazolyl)-2-aminothiophene-3-sulfonamide]
23 | 8100 | 3200 |  |  |  | Cc1noc(NS(=O)(=O)c2sccc2Cc2ccc3c(c2)OCO3)c1Br [N-(4-bromo-3-methyl-5-isoxazolyl)-3-[(3,4-methylenedioxy)benzyl]thiophene-2-sulfonamide]
24 | 648 | 68500 |  |  |  | Cc1ccc(OC(=O)c2sccc2S(=O)(=O)Nc2onc(C)c2Cl)c(C)c1 [N-(4-chloro-3-methyl-5-isoxazolyl)-2-[(2,4-dimethylphenoxy)carbonyl]thiophene-3-sulfonamide]
25 | 15.9 | 29500 |  |  |  | Cc1cc(C)c(NC(=O)c2sccc2S(=O)(=O)Nc2onc(C)c2Cl)c(-c2ccccc2)c1 [N-(4-chloro-3-methyl-5-isoxazolyl)-2-(2-phenyl-4,6-dimethylphenylaminocarbonyl)thiophene-3-sulfonamide]
26 | 96.7 |  |  |  | 4140 | Cc1noc(NS(=O)(=O)c2sccc2CC=Cc2cc3c(cc2COC2CCCCO2)OCO3)c1Br (centres unmarked) [N-(4-bromo-3-methyl-5-isoxazolyl)-3-{2-[(tetrahydro-4H-pyran-2-yloxy)methyl]-4,5-(methylenedioxy)cinnamyl}thiophene-2-sulfonamide]
27 | 56 | 92000 |  |  |  | Cc1cc(NC(=O)c2sccc2S(=O)(=O)Nc2onc(C)c2Cl)no1 [N-(4-chloro-3-methyl-5-isoxazolyl)-2-[(5-methyl-3-isoxazolyl)aminocarbonyl]thiophene-3-sulfonamide]
28 | 932 | 46800 |  |  |  | N-(4-chloro-3-methyl-5-isoxazolyl)-2-phenylbenzo[b]thiophene sulfonamide
29 | 27 | 140 |  |  |  | COc1ccc(NC(=O)c2sccc2S(=O)(=O)Nc2onc(C)c2Cl)c(C)c1 [N-(4-chloro-3-methyl-5-isoxazolyl)-2-[4-methoxy-2-methylphenyl)aminocarbonyl]thiophene-3-sulfonamide]
30 | ~10 | ~18000 |  |  |  | Cc1noc(NS(=O)(=O)c2ccsc2C(=O)Nc2cc3c(cc2OCCO)OCO3)c1Cl [N-(4-chloro-3-methyl-5-isoxazolyl)-2-[3,4-(methylenedioxy)-6-(2-hydroxyethoxy)phenylaminocarbonyl]thiophene-3-sulfonamide]
31 | 7.3 | 9200 |  |  |  | Cc1noc(NS(=O)(=O)c2ccsc2C(=O)Nc2ccc3c(c2)OCO3)c1Cl [N-(4-chloro-3-methyl-5-isoxazolyl)-2-[3,4-(methylenedioxy)]phenylaminocarbonyl-3-thiophenesulfonamide]
32 | 140 | 1400 |  |  |  | Cc1noc(NS(=O)(=O)c2ccsc2C/C=C/c2ccc3c(c2)OCO3)c1Br [N-(4-bromo-3-methyl-5-isoxazolyl)-2-[trans-(3,4-methylenedioxy)cinnamyl]thiophene-3-sulfonamide]
33 | 100 | 60300 |  |  |  | Cc1ccc(-c2ccsc2S(=O)(=O)Nc2onc(C)c2Br)c(C)c1 [N-(4-bromo-3-methyl-5-isoxazolyl)-3-(2,4-dimethylphenyl)thiophene-2-sulfonamide]

From patent US6632829B2, “Sulfonamides and derivatives thereof that modulate the activity of endothelin” (Texas Biotechnology Corp., priority 1996, dated 2003)
